Experimental data reported in ChEMBL document CHEMBL1811867, “Psilostachyin, acetylated pseudoguaianolides and their analogues: preparation and evaluation of their anti-inflammatory potential” (2011).

Assay: Antiinflammatory activity in mouse neutrophils assessed as inhibition of LPS-stimulated IL-6 expression at 1 ug/ml after 4-5 hrs by ELISA relative to control
Format: functional
Conditions: Neutrophil

Row | Compound | inhibition at 1 µg/mL [%]
1 | C[C@H]1CC[C@@H]2[C@@H](OC(=O)[C@@]23CCN=N3)[C@](C)(O)[C@@]12C=CC(=O)O2 | 11.3
2 | C[C@H]1CC[C@@H]2[C@@H](OC(=O)[C@@]23CCN=N3)[C@]2(C)OC(=O)C=C[C@@]12O | 14
3 | CC1=C2CC[C@H](C)[C@]3(O)CCC(=O)O[C@@]3(C)[C@@H]2OC1=O | 17.1

Assay: Antiinflammatory activity in mouse neutrophils assessed as inhibition of LPS-stimulated IL1-beta expression after 4-5 hrs by ELISA relative to control
Format: functional, Neutrophil
Conditions: not given

Row | Compound | inhibition (INH) [%]
4 | COc1ccc(C2CNC(=O)C2)cc1OC1CCCC1 (centres undefined) [ROLIPRAM] | 64.27

Assay: Antiinflammatory activity in mouse neutrophils assessed as inhibition of LPS-stimulated TNFalpha cytokine expression at 100 ug/ml after 3 hrs by flow cytometeric analysis
Format: functional
Conditions: Neutrophil

Row | Compound | inhibition at 100 µg/mL [%]
5 | COc1ccc(C2CNC(=O)C2)cc1OC1CCCC1 (centres undefined) [ROLIPRAM] | 71.5

Assay: Antiinflammatory activity in mouse neutrophils assessed as inhibition of LPS-stimulated TNFalpha cytokine expression at 1 ug/ml after 3 hrs by flow cytometeric analysis
Format: functional
Conditions: Neutrophil

Row | Compound | inhibition at 1 µg/mL [%]
6 | C=C1C(=O)O[C@@H]2[C@H]1CC[C@H](C)C1=C[C@H](OC(C)=O)C(=O)[C@]12C | 5.46
7 | C=C1C(=O)O[C@@H]2[C@H]1CC[C@H](C)C1=C[C@@H](OC(C)=O)C(=O)[C@]12C | 2.34
8 | C=C1C(=O)O[C@@H]2[C@H]1CC[C@H](C)[C@]1(OC(C)=O)C=CC(=O)[C@@]21C | -1.17
9 | C=C1C(=O)O[C@@H]2[C@H]1CC[C@H](C)[C@]1(OC(=O)CC)C=CC(=O)[C@@]21C | -17.2
10 | C=C1C(=O)O[C@@H]2[C@H]1CC[C@H](C)[C@]1(OC(=O)CCC)C=CC(=O)[C@@]21C | 14.1
11 | C=C1C(=O)O[C@@H]2[C@H]1CC[C@H](C)C1=C[C@H](OC(=O)CC)C(=O)[C@]12C | 10.5
12 | C=C1C(=O)O[C@@H]2[C@H]1CC[C@H](C)C1=C[C@H](OC(=O)CCC)C(=O)[C@]12C | -6.64
13 | C=C1C(=O)O[C@@H]2[C@H]1CC[C@H](C)C1=C[C@@H](OC(=O)CC)C(=O)[C@]12C | -9.37
14 | C=C1C(=O)O[C@@H]2[C@H]1CC[C@H](C)C1=C[C@@H](OC(=O)CCC)C(=O)[C@]12C | 32
15 | C=C1C(=O)O[C@@H]2[C@H]1CC[C@H](C)[C@]1(C=CC(=O)O1)[C@@]2(C)O | 31.2
16 | C[C@H]1CC[C@@H]2[C@@H](OC(=O)[C@@]23CCN=N3)[C@](C)(O)[C@@]12C=CC(=O)O2 | 49.2
17 | C=C1C(=O)O[C@@H]2[C@H]1CC[C@H](C)[C@]1(OC(C)=O)C=CC(=O)O[C@@]21C | 16.8
18 | C=C1C(=O)O[C@@H]2[C@H]1CC[C@H](C)[C@]1(OC(=O)CC)C=CC(=O)O[C@@]21C | 26.9
19 | C=C1C(=O)O[C@@H]2[C@H]1CC[C@H](C)[C@]1(OC(=O)CCC)C=CC(=O)O[C@@]21C | 12.5
20 | C[C@H]1CC[C@@H]2[C@@H](OC(=O)[C@@]23CCN=N3)[C@]2(C)OC(=O)C=C[C@@]12O | 59.8
21 | CC1=C2CC[C@H](C)[C@]3(O)CCC(=O)O[C@@]3(C)[C@@H]2OC1=O | 53.1
22 | C=C1C(=O)O[C@@H]2[C@H]1CC[C@H](C)[C@]1(O)C=CC(=O)O[C@@]21C | 41.4
23 | C=C1C(=O)O[C@@H]2[C@H]1CC[C@H](C)[C@]1(O)CCC(=O)[C@@]21C [CORONOPILIN] | -7.03
24 | C=C1C(=O)O[C@@H]2[C@H]1CC[C@H](C)[C@]1(O)C=CC(=O)[C@@]21C [PARTHENIN] | -0.39
25 | C=C1C(=O)O[C@@H]2[C@H]1CC[C@H](C)[C@]1(CCC(=O)O1)[C@@]2(C)O [PSILOSTACHYIN A] | 39.5

Assay: Antiinflammatory activity in mouse neutrophils assessed as inhibition of LPS-stimulated IL1-beta expression at 1 ug/ml after 4-5 hrs by ELISA relative to control
Format: functional
Conditions: Neutrophil

Row | Compound | inhibition at 1 µg/mL [%]
26 | C[C@H]1CC[C@@H]2[C@@H](OC(=O)[C@@]23CCN=N3)[C@](C)(O)[C@@]12C=CC(=O)O2 | 36
27 | C[C@H]1CC[C@@H]2[C@@H](OC(=O)[C@@]23CCN=N3)[C@]2(C)OC(=O)C=C[C@@]12O | 41.4
28 | CC1=C2CC[C@H](C)[C@]3(O)CCC(=O)O[C@@]3(C)[C@@H]2OC1=O | 40.9

Assay: Antiinflammatory activity in mouse neutrophils assessed as inhibition of LPS-stimulated IL-6 expression at 100 ug/ml after 4-5 hrs by ELISA relative to control
Format: functional
Conditions: Neutrophil

Row | Compound | inhibition at 100 µg/mL [%]
29 | COc1ccc(C2CNC(=O)C2)cc1OC1CCCC1 (centres undefined) [ROLIPRAM] | 36.1
